Values quoted from earlier work, collected in patent US20120239131A1, “METHODS AND APPARATUS FOR TREATMENT OF ANEURYSMAL TISSUE” (Medtronic Vascular, Inc., priority 2011, published 2012).

Experiments:
[1] = cited from earlier work; for Route of clearance/elimination: in vivo
ACE = ACE (Homo sapiens, UniProt P12821); conditions: in vitro; cited from earlier work
[2] = cited from earlier work

ACE, sequence (P12821 30-1306, species assumed): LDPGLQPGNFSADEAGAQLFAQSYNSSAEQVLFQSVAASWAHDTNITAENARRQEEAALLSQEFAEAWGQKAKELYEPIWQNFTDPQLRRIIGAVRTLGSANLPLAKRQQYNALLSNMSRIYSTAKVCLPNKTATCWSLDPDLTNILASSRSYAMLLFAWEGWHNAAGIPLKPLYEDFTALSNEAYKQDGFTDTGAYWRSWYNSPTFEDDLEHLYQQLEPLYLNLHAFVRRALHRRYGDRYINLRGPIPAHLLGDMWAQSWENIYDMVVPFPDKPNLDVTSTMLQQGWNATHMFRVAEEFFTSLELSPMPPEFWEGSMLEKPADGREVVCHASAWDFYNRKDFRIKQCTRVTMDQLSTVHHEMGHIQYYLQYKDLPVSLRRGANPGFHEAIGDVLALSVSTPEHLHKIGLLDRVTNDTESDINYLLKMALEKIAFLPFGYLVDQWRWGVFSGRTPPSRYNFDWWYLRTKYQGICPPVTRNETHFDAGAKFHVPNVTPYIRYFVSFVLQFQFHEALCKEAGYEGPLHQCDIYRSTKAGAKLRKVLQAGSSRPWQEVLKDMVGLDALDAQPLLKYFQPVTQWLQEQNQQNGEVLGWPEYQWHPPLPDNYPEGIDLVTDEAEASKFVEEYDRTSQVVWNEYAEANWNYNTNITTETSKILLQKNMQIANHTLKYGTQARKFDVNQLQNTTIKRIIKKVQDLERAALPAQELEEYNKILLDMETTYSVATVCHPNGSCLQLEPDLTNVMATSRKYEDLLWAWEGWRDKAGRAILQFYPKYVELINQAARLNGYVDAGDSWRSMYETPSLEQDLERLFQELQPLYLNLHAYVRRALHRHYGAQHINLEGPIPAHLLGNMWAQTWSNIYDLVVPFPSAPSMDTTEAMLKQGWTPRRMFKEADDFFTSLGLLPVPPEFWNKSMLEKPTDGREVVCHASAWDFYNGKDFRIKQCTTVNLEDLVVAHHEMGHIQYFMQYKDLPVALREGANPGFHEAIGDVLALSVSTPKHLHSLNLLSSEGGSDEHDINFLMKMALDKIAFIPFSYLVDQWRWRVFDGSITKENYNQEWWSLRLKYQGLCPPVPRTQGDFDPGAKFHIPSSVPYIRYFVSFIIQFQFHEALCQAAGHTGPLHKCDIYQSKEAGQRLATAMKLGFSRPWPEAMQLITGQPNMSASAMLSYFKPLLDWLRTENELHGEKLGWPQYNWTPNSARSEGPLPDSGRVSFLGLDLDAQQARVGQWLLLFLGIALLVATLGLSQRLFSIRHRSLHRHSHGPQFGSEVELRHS

Row | Structure (SMILES) | ACE inhibitor potency (in words) (ACE) | Route of clearance/elimination [1] | also measured
1 | NCCCC[C@H](N[C@@H](CCc1ccccc1)C(=O)O)C(=O)N1CCC[C@H]1C(=O)O [Lisinopril, lisinopril] | slightly more potent ACE inhibitor than is enalaprilat |  | Time to peak concentrations in the plasma ([1]; after oral administration): about 7 hours
2 | O=C(O)c1cccnc1 [Niacin, nicotinic acid] |  |  | Water solubility [2]: water-soluble
3 | CCOC(=O)[C@H](CCc1ccccc1)N[C@@H](C)C(=O)N1CCC[C@H]1C(=O)O [enalapril] | not highly active |  | 
4 | CCC(=O)O[C@@H](O[P@](=O)(CCCCc1ccccc1)CC(=O)N1C[C@H](C2CCCCC2)C[C@H]1C(=O)O)C(C)C [fosinopril] |  | balanced elimination by the liver and kidneys | 
5 | CCOC(=O)[C@H](CCc1ccccc1)N[C@@H](C)C(=O)N1CC2(C[C@H]1C(=O)O)SCCS2 [spirapril] |  | balanced elimination by the liver and kidneys | 
